Source: patent US20260294836A1, “REMOTE CONTROL AND QUANTITATIVE MONITORING OF DRUG RELEASE FROM NANOPARTICLES BASED ON MAGNETIC PARTICLE IMAGING” (Board of Trustees of Michigan State University, priority 2022, published 2026)

Tests used:
Type in all cases: in vivo, Balb/c mice
[1] = system: 4T1 tumor; assay: Short-term tumor inhibition (BLI, tumor size, 15 days); conditions: DOX alone
Description: (§1) The 4T1 tumor-bearing Balb/c mice may be randomly divided into six groups. In at least one example embodiment, each group may include three mice. In at least one example embodiment, a first group may receive PLGA. In at least one example embodiment, a second group may receive SPNCD. In at least one example embodiment, a third group may receive SPNCD and may be irradiated with NIR for 1 minute. In at least one example embodiment, a fourth group may receive SPNCD and may be irradiated with NIR for 7 minutes. In at least one example embodiment, a fifth group may receive SPNC and may be irradiated with NIR for 1 minute. In at least one example embodiment, a sixth group may receive DOX.
(§2) Once tumor volumes reach or become greater than 100 mm^3, the mice may be intratumorally injected with the various conditions (e.g., PLGA in the instance of the first group, SPNCD in the instance of the second group, SPNCD+NIR-1 minute in the instance of the third group, SPNCD+NIR-7 minute in the instances of the fourth group, SPNC+NIR-1 minute in the instance of the fifth group, and DOX in the instance of the sixth group) every 2 days for 15 days. Tumor size and mouse body weight may be measured every 2 days for 15 days in total. […]

[2] = system: 4T1 tumor; assay: Apoptosis in tumors (flow cytometry and TUNNEL assay); conditions: no NIR
Description: as §1, §2

[3] = system: F4/80-positive TAM; assay: F4/80 immunostaining of tumor sections (TAM accumulation); conditions: without NIR
Description: as §1, §2

[4] = system: 4T1 tumor; assay: Long-term tumor inhibition and metastasis, 4T1 tumor mice; conditions: DOX alone; PBS 30 days
Description: The 4T1 cells may be implanted into the mammary fat pads of six-week-old female Balb/c mice. In at least one example embodiment, about 1×10^6 cells may be implanted per mouse.
4T1 tumor-bearing Balb/c mice and BT549 tumor-bearing Nude mice ay be randomly divided into three groups. In at least one example embodiment, each group may include eight mice (PBS, SPNCD+NIR 7 min, DOX). Once tumor volumes reach or become greater than 100 mm^3, 4T1 tumor-bearing mice (DOX: 0.122 mg/kg) and BT549 tumor-bearing mice (DOX: 1.5 mg/kg) may be intratumorally injected with agents from the various conditions every 2 days for 15 days followed by NIR irradiation (808 nm, 1W). In at least one example embodiment, the DOX dose may be determined based on the IC50 of each cell line. Tumor size and mouse weight may be measured every 3 days for 80 days in total. Bioluminescence imaging (e.g., PerkinElmer, USA) may be conducted every 3 days by intraperitoneally injected D luciferin (e.g., 150 mg/kg) into 4T1 tumor-bearing Balb/c mice to observe the metastasis of 4T1 tumor-bearing Balb/c mice.
Tumor growth, mouse bodyweight, and tumor metastasis may be monitored for 80 days in 4T1 DOX-sensitive and BT459 DOX-resistant tumor mice. The mice may be randomly divided into four groups. In at least one example embodiment, each group may include five mice. […]

## COc1cccc2c1C(=O)c1c(O)c3c(c(O)c1C2=O)C[C@@](O)(C(=O)CO)C[C@@H]3O[C@H]1C[C@H](N)[C@H](O)[C@H](C)O1 [DOX, doxorubicin]
[1]
  tumor size: did not increase in size
[2]
  apoptosis in tumor: induced significant apoptosis
[3]
  F4/80-positive TAM accumulation versus PLGA treated groups: increased more
[4]
  time-to-tumor metastasis: 60 days post injection
